Data taken from the NIST ThermoML archive (doi:10.1016/j.fluid.2017.06.022).

Experiment: xn = mol fraction of the nth substance listed
Details: Liquid, Bellows volumetry

C=C [ethene] + Cc1ccccc1
Details | mass density [kg/m3]
421 K, 37600 kPa, x1 = 0.3067 | 688.2
421 K, 44700 kPa, x1 = 0.3067 | 698
421 K, 51000 kPa, x1 = 0.3067 | 705.4
421 K, 58300 kPa, x1 = 0.3067 | 714.6
421 K, 63100 kPa, x1 = 0.3067 | 720.1
421 K, 66800 kPa, x1 = 0.3067 | 724
422.2 K, 2530 kPa, x1 = 0.1194 | 681.2
422.2 K, 2830 kPa, x1 = 0.1194 | 682.2
422.2 K, 3620 kPa, x1 = 0.1194 | 684.1
422.2 K, 5330 kPa, x1 = 0.1194 | 688.4
422.2 K, 7040 kPa, x1 = 0.1194 | 692.2
422.2 K, 7110 kPa, x1 = 0.1194 | 692.2
422.2 K, 10420 kPa, x1 = 0.1194 | 699.6
422.2 K, 13400 kPa, x1 = 0.1194 | 705.1
422.2 K, 17400 kPa, x1 = 0.1194 | 712.2
422.2 K, 20480 kPa, x1 = 0.1194 | 716.9
422.2 K, 22980 kPa, x1 = 0.1194 | 720.6
422.2 K, 24010 kPa, x1 = 0.1194 | 722.1
422.2 K, 30990 kPa, x1 = 0.1194 | 731.2
422.2 K, 37420 kPa, x1 = 0.1194 | 739.4
422.2 K, 44550 kPa, x1 = 0.1194 | 747.3
422.2 K, 51320 kPa, x1 = 0.1194 | 755.3
422.2 K, 58240 kPa, x1 = 0.1194 | 762.3
422.2 K, 63240 kPa, x1 = 0.1194 | 767.6
422.2 K, 67210 kPa, x1 = 0.1194 | 771.2
470.9 K, 3430 kPa, x1 = 0.1194 | 616.2
470.9 K, 3560 kPa, x1 = 0.1194 | 617.7
470.9 K, 4240 kPa, x1 = 0.1194 | 620.4
470.9 K, 4990 kPa, x1 = 0.1194 | 623.6
470.9 K, 5950 kPa, x1 = 0.1194 | 627.5
470.9 K, 7310 kPa, x1 = 0.1194 | 631.9
470.9 K, 10590 kPa, x1 = 0.1194 | 642.6
470.9 K, 14000 kPa, x1 = 0.1194 | 652.4
470.9 K, 16940 kPa, x1 = 0.1194 | 659.8
470.9 K, 24260 kPa, x1 = 0.1194 | 676.6
470.9 K, 31240 kPa, x1 = 0.1194 | 690.3
470.9 K, 37460 kPa, x1 = 0.1194 | 701.1
470.9 K, 41500 kPa, x1 = 0.1194 | 707.1
470.9 K, 44850 kPa, x1 = 0.1194 | 712.2
470.9 K, 51420 kPa, x1 = 0.1194 | 720.6
470.9 K, 58440 kPa, x1 = 0.1194 | 729.1
470.9 K, 62650 kPa, x1 = 0.1194 | 733.4
470.9 K, 67380 kPa, x1 = 0.1194 | 738.3
475.1 K, 7800 kPa, x1 = 0.3067 | 540.4
475.1 K, 8600 kPa, x1 = 0.3067 | 545.2
475.1 K, 9400 kPa, x1 = 0.3067 | 551
475.1 K, 10600 kPa, x1 = 0.3067 | 557.2
475.1 K, 12100 kPa, x1 = 0.3067 | 565.4
475.1 K, 14000 kPa, x1 = 0.3067 | 572.7
475.1 K, 17400 kPa, x1 = 0.3067 | 586
475.1 K, 20700 kPa, x1 = 0.3067 | 598.4
475.1 K, 24300 kPa, x1 = 0.3067 | 609
475.1 K, 30800 kPa, x1 = 0.3067 | 625.7
475.1 K, 37500 kPa, x1 = 0.3067 | 640.8
475.1 K, 44500 kPa, x1 = 0.3067 | 654.3
475.1 K, 51800 kPa, x1 = 0.3067 | 666.5
475.1 K, 58100 kPa, x1 = 0.3067 | 676.2
475.1 K, 63100 kPa, x1 = 0.3067 | 682.6
475.1 K, 67400 kPa, x1 = 0.3067 | 687.7
519 K, 4500 kPa, x1 = 0.1194 | 541.1
519 K, 5100 kPa, x1 = 0.1194 | 547.1
519 K, 6120 kPa, x1 = 0.1194 | 555.5
519 K, 7100 kPa, x1 = 0.1194 | 562.7
519 K, 8870 kPa, x1 = 0.1194 | 573.5
519 K, 10630 kPa, x1 = 0.1194 | 583
519 K, 13940 kPa, x1 = 0.1194 | 597.1
519 K, 14140 kPa, x1 = 0.1194 | 598.2
519 K, 17480 kPa, x1 = 0.1194 | 610.1
519 K, 24180 kPa, x1 = 0.1194 | 630.3
519 K, 31210 kPa, x1 = 0.1194 | 647.7
519 K, 38050 kPa, x1 = 0.1194 | 662.1
519 K, 44340 kPa, x1 = 0.1194 | 674.3
519 K, 51320 kPa, x1 = 0.1194 | 686.5
519 K, 51390 kPa, x1 = 0.1194 | 686.5
519 K, 58160 kPa, x1 = 0.1194 | 697.1
519 K, 63090 kPa, x1 = 0.1194 | 704.6
519 K, 66990 kPa, x1 = 0.1194 | 709.7
519.3 K, 8400 kPa, x1 = 0.3067 | 448
519.3 K, 8600 kPa, x1 = 0.3067 | 455.1
519.3 K, 9400 kPa, x1 = 0.3067 | 472
519.3 K, 10500 kPa, x1 = 0.3067 | 482.9
519.3 K, 12000 kPa, x1 = 0.3067 | 499.7
519.3 K, 13800 kPa, x1 = 0.3067 | 513.9
519.3 K, 14100 kPa, x1 = 0.3067 | 515.9
519.3 K, 15900 kPa, x1 = 0.3067 | 525.1
519.3 K, 17200 kPa, x1 = 0.3067 | 535.5
519.3 K, 20900 kPa, x1 = 0.3067 | 553.6
519.3 K, 24100 kPa, x1 = 0.3067 | 565.7
519.3 K, 31300 kPa, x1 = 0.3067 | 589.3
519.3 K, 37800 kPa, x1 = 0.3067 | 605
519.3 K, 44900 kPa, x1 = 0.3067 | 621.2
519.3 K, 51600 kPa, x1 = 0.3067 | 636.4
519.3 K, 58300 kPa, x1 = 0.3067 | 647.5
519.3 K, 63100 kPa, x1 = 0.3067 | 656.6
519.3 K, 67100 kPa, x1 = 0.3067 | 662.7
